Data set [1] deals with Burkholderia cepacia ATCC 17759. Description: MIC, agar dilution method. In kind it is cell-based. The settings on record: ATCC17759, Mueller-Hinton agar, aerobic, 16-20 h at 36° C. The text has this: (§1) The formulations prepared according to Examples 11, 12 and 13, were used to evaluate the Minimal Inhibitory Concentration (MIC) required to inhibit the growth of the following organisms: Burkholderia cepacia, Haemophilus influenzae, and Pseudomonas aeruginosa, using the agar dilution method based on DIN 58940 and 58944 according to NCCLS (National Committee on Clinical Laboratory Standards) criteria. […] To determine MIC, Petri dishes containing Mueller-Hinton agar supplemented with agar-agar, or chocolate agar were prepared. Dilutions of the formulations prepared under Examples 11, 12, 13 and 14 were prepared in aqua purificata, resulting in solutions containing 1000 μg drug per ml (with exception of the formulation only containing levofloxacin, where a dilution containing 640 μg/ml was prepared). […] Two agar plates were poured for each test concentration and culture medium. After solidification and drying, the agar plates were inoculated with the test organisms and incubated as described in Table 7. [table] The MIC was given as the lowest concentration of the active substance at which there was no macroscopically visible growth. Minimal, barely visible growth or few small individual colonies were evaluated as inhibition. The MIC readings are generally subject to an error of up to two dilutions. […] For Haemophilus spp., it was defined that a breakpoint ≦4 μg/ml is classified as susceptible.

In data set [2] the test system is Haemophilus influenzae ATCC 49247. Description: MIC, agar dilution method. Type of data set: cell-based. The following applies: for MIC: ATCC49247, Chocolat agar, microaerophile, 16-20 h at 36° C.
Source text: as §1
In general terms: In agar dilution, organisms are placed on agar that contains the substance at set levels.

Data set [3] deals with Pseudomonas aeruginosa ATCC 9027. In words: MIC, agar dilution method. The following applies: ATCC9027, Mueller-Hinton agar, aerobic, 16-20 h at 36° C. In kind it is cell-based.
Source text: as §1

For data set [4] the following is noted: cited from earlier work.
[5] abbreviates: after single oral dose administration.

≈ marks a conversion by molar mass, not a printed value.

Consider `NC[C@H]1O[C@H](O[C@H]2[C@H](O)[C@@H](O[C@H]3O[C@H](CO)[C@@H](O)[C@H](N)[C@H]3O)[C@H](N)C[C@@H]2N)[C@H](N)C[C@@H]1O` [Tobr., tobramycin], for which the MIC in data set [1] turned out to be 50 µg/mL (≈ 107 µM); in data set [2], 50 µg/mL (≈ 107 µM); in data set [3] it was 0.781 µg/mL (≈ 1.67 µM). Also, the susceptibility classification entry in data set [2] is “resistant”.

`CC[C@H]1OC(=O)[C@H](C)[C@@H](O[C@H]2C[C@@](C)(OC)[C@@H](O)[C@H](C)O2)[C@H](C)[C@@H](O[C@@H]2O[C@H](C)C[C@H](N(C)C)[C@H]2O)[C@](C)(O)C[C@@H](C)CN(C)[C@H](C)[C@@H](O)[C@]1(C)O` [Azi., azithromycin] yielded an MIC in data set [1] of 25 µg/mL (≈ 33.4 µM). In addition, in data set [2], the susceptibility classification entry is reported as “resistant” and the MIC came out at 25 µg/mL (≈ 33.4 µM). Moreover, the MIC in data set [3] turned out to be 6.25 µg/mL (≈ 8.34 µM). Further, the “concentration in sputum exceeds the plasma concentration” value in data set [4] (after multiple oral doses) is 67 fold. In data set [4] (setting [5]), the “concentration in alveolar macrophages exceeds plasma concentration” value is listed as 170 fold and the “concentration in bronchial mucosa exceeds plasma concentration” value is given as 29 fold.

As to `C[C@H]1COc2c(N3CCN(C)CC3)c(F)cc3c(=O)c(C(=O)O)cn1c23` [Levo., levofloxacin], the values for the MIC in data set [1], in data set [2] and in data set [3] were 4 µg/mL (≈ 11.1 µM), 0.25 µg/mL (≈ 0.692 µM) and 0.5 µg/mL (≈ 1.38 µM), respectively.

Source of the values: patent US20090232744A1, “Macrolide compositions having improved taste and stability” (priority 2008, published 2009).
